Data on one molecule can be found in patent US20240148679A1, “METHODS AND COMPOSITIONS RELATED TO TREATMENT AND PREVENTION OF CANCER BY INHIBITION OF DGAT1 AND DGAT2” (Ohio State Innovation Foundation, priority 2019, published 2024).

The test system of the assay is GBM cells (U251). In words: Mitochondrial morphology (TEM, MitoTracker Red). Format: cell-based, human. The note with it: inhibitor 24 hours. How it is done:
(A, B) Transmission electron microscopy (TEM) analysis of the mitochondrial morphology in GBM cells (U251) treated with the DGAT1 inhibitor A-922500 (20 μg/ml) or DGAT2 inhibitor PF-06424439 (20 μg/ml) for 24 hr and shown in a or infected with shRNA-expressing lentivirus against DGAT1 for 48 hr and shown in b. Scale bar, 500 nm. Mitochondria are indicated by red arrows. Mitochondria length and loss of cristae (%) were quantified by ImageJ over 100 mitochondria in each group (mean±SEM). Statistical significance was determined by one-way ANOVA. * P<0.0001. (C, D) Representative fluorescence images of LDs (green) and mitochondria (red) in U251 cells treated with DGAT1 or DGAT2 inhibitor and shown in c or shRNA in (D) as in panels (A, B). […] The percentage of cells with tubular or fragmented mitochondria was quantified by ImageJ in more than 100 cells (mean±SEM). Statistical significance was determined by one-way ANOVA. * P<0.001. […] Lower panels show the quantification of relative basal and maximal OCR change (details please see Methods). […] Basal OCR was determined as OCR before oligomycin subtract OCR after rotenone addition, and maximal OCR was determined as OCR after FCCP subtract OCR after rotenone addition. Statistical significance was determined by one-way ANOVA. * P<0.0001. […] ROS were detected with CellROX Deep Red, and mitochondria were stained with MitoTracker Green. […]

Each structure is given as a SMILES string.

`O=C(Nc1ccccc1)Nc1ccc(-c2ccc(C(=O)[C@@H]3CCC[C@H]3C(=O)O)cc2)cc1` [A-922500]: the structure of mitochondria entry is “severely disrupted”.
